Patent US5159085A, “2-anilino phenylacetic acid derivatives as inhibitors of PLA2 and lipoxygenase” (American Home Products Corporation, priority 1991, dated 1992)
Counter-ions that a name gives are not always drawn. Like-named read-outs stand apart in the source and are kept apart here.

Columns and labels:
[1] = molecular target: T1, human synovial fluid PLA2 (Homo sapiens, UniProt P14555); experiment: In vitro isolated phospholipase A2 assay, human synovial fluid PLA2; type: biochemical; conditions: 10 μM; human synovial fluid; negative values denote potentiation; read-out: % Inhibition at 10 μM HSF
T1 construct: Purified human synovial fluid; from tissue; host or cells: human synovial fluid
T1 sequence (P14555 21-144): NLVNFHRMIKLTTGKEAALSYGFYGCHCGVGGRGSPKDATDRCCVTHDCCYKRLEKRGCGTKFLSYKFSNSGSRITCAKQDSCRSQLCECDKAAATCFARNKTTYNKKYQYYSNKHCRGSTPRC
Protocol: The compounds of the invention are tested in an in vitro isolated phospholipase A2 assay to determine the ability of the test compounds to inhibit the release of arachidonic acid from an arachidonic acid-containing substrate by the action of phospholipase A2 enzyme from human and non-human sources.
This assay is carried out as follows:
Into a 15 mL polypropylene tube are added the following:
*pre-incubate at room temperature 30 min prior to substrate addition.
^5 Stock 10 mM prepared in dimethyl sulfoxide. Make 1:2 dilution with
dimethyl sulfoxide and add 1 μ L to 100 μL assay tube.
^6 Two human PLA2 enzymes are used:
b) Purified human synovial fluid.
Incubate the 100 μL reaction mixture for 10 minutes at 37° C. in a shaking water bath. The reaction is terminated by the addition of 2 mL tetrahydrofuran, followed by vortexing. NH2 columns (100 μg/mL--Analytichem International) are conditioned with 0.5 mL tetrahydrofuran followed by 0.5 mL tetrahydrofuran/water (2 mL:0.1 mL, v/v).
The sample is loaded onto the columns and slowly drawn through them. The hydrolyzed arachidonic acid retained in the columns is eluted therefrom with 1 mL tetrahydrofuran/glacial acetic acid (2%). The arachidonic acid is transferred to scintillation vials and quantitated by β-counting analysis. A "total counts" sample is prepared by pipetting 25 μL ^3 H-arachidonate E. coli directly into a scintillation vial to which is added 1 mL tetrahydrofuran. 10 mL aquasol (scintillation cocktail) is added to all samples. [formula]

[2] = tested on: TxB2 synthesis (cyclooxygenase) by rat glycogen-elicited polymorphonuclear leukocytes; experiment: Inhibition of TxB2 synthesis by rat glycogen-elicited PMN (cyclooxygenase); type: cell-based, rat (female Wistar); conditions: for inhibition at 0.5 µM: negative values denote potentiation of cyclooxygenase; for IC50: rat PMN, read-out: IC50 (TxB2 synthesis)
Protocol: (§1) Rat polymorphonuclear leukocytes (PMNs) are obtained from female Wistar rats (150-200 g) which receive an injection of 6% glycogen (10 ml i.p.). Rats are sacrificed 18-24 hours post injection by CO2 asphyxiation and the elicited cells are harvested by peritoneal lavage using physiological saline (0.9% NaCl). The exudate is centrifuged at 400×g for 10 minutes. The supernatant fluid is discarded and the cell pellet is resuspended to a concentration of 2.0×10^7 cells/ml in HBSS containing Ca^++ and Mg^++ and 10 μM L-cysteine.
(§2) To 1 ml aliquots of cell suspension, test drugs or vehicle are added, then preincubated at 37° C. for 10 minutes. A 23187 (1 μM), [^3 H]-AA (3.0 μCi/ml) and unlabeled AA (1 μM) are then added and the samples are further incubated for 10 minutes. The reaction is terminated by centrifugation and pelleting cells. Supernatants are then analyzed by HPLC analysis on a 15 cm×4.6 mm ID supelcosil LC-18 (Supelco)(3M) column, using a two solvent system at a flow rate of 1.4 ml total flow as follows:
(§3) Percent solvent changes are accomplished in a linear fashion.
(§4) Injections: 150 μl of each supernatant is injected directly onto column and ^3 H arachidonic acid metabolites are monitored using an on-line radioactivity detector (Ramona, IN/US, Fairfield, NJ).
(§5) Standards: 10^4 -2.0×10^4 dpm of eicosanoids of interest are injected in 90 μl EtOH cocktail.
(§6) Co-chromatography with standard [^3 H] leukotriene B4 (LTB4) in medium of stimulated PMN exposed to drug is compared to that found in medium of stimulated cells exposed to no drug, generating percent inhibition.
(§7) Results are expressed as percent inhibition at a given compound dose or as an IC50 value.
In this assay, the procedure of Example 19 is carried out as described. However, in order to determine cyclooxygenase activity, the samples are co-chromatographed with authentic reference [^3 H]-TxB2.
The results are calculated as in Example 19 and presented below: […]

[3] = tested on: paw edema induced by exogenous PLA2 (snake, A. piscivorus piscivorus); experiment: In vivo PLA2 murine paw edema assay; set-up: species or system mouse (male CD-1); conditions: for change in vivo at 1 mg/kg: Mus musculus, ip, 0.5 h; for % Change in Edema 30 min / change in vivo at 1 mg/kg: 30 min; for ED50 at +10 min: mouse
Protocol: The ability of the compounds of the invention to inhibit paw edema induced by the exogenous administration of PLA2 is measured in the in vivo PLA2 murine paw edema assay.
(§8) The assay is carried out as follows:
Non-fasted, male CD-1 mice (8 weeks old; 31-36 grams) are placed in plastic boxes in groups of six. The right hind paw volume is measured using mercury plethysmography (zero time). […] A solution of purified PLA2, from the diamond back cotton mouth snake (A. piscivorus piscivorus) is prepared in saline at a concentration of 6 μg/ml. Fifty (50) μl (0.3 μg) of this PLA2 solution is injected subcutaneously into the right hind paw with a plastic 1 ml plastic syringe (27 gauge, 1" needle). Paw volume of the injected paw is measured again at 10 minutes, 30 minutes and 60 minutes after PLA2 injection. Animals are euthanized with CO2 at the completion of the study.
The paw edema is calculated by subtracting the zero time volume from the volume recorded at each time period. Mean paw edema for each treatment group is then calculated and expressed as (μl±S.E.). Drug effects are expressed as a percent change from control (vehicle) values. Statistical significance is determined by a one-way analysis of variance with LSD comparison to control (p<0.05). ED50 's are determined using repression analysis.

[4] = tested on: LTB4 synthesis by rat glycogen-elicited polymorphonuclear leukocytes (lipoxygenase); experiment: Inhibition of LTB4 synthesis by rat glycogen-elicited polymorphonuclear leukocytes (PMN); type: cell-based, rat (female Wistar); conditions: A 23187 and exogenous AA; for inhibition at 0.5 µM: negative value denotes potentiation
From the text: This is especially true with respect to 5,12-diHETE, which is also denoted as LTB4 [see Ford-Hitchinson, J. Roy. Soc. Med., 74, 831 (1981)]. Compounds which inhibit the PLA2 -mediated release of arachidonic acid thereby effectively prevent the oxidation of arachidonic acid to the various leukotriene products via the lipoxygenase cascade. Accordingly, the specificity of action of PLA2 inhibitors can be determined by the activity of test compounds in this assay, which measures the ability of compounds to inhibit the synthesis of LTB4 by rat glycogen-elicited polymorphonuclear leukocytes (PMN) in the presence of exogenous substrate.
as §8, §1, §2
Gradient: (system is equillibrated with Solvent A)
as §3, §4, §5, §6, §7

[5] = molecular target: T2, human platelet PLA2 (Homo sapiens, UniProt P14555); experiment: In vitro isolated phospholipase A2 assay, human platelet PLA2 (arachidonic acid release from 3H-AA E. coli substrate); type: biochemical; conditions: human platelet; for inhibition at 10 µM: negative values denote potentiation, read-out: % Inhibition at 10 μM HP
T2 construct: Semipurified human platelet acid extract PLA2; from tissue; host or cells: human platelets (semipurified acid extract)
T2 sequence (P14555 21-144): T1 sequence (P14555 21-144)

| Molecule | inhibition at 10 µM [1] | inhibition at 0.5 µM ([2]; Rattus norvegicus, Leukocyte) | % Change in Edema 10 min ([3]; 10 mg/kg i.p.) | % Change in Edema 30 min ([3]; 10 mg/kg i.p.) | inhibition at 0.5 µM ([4]; Leukocyte) | other results |
| --- | --- | --- | --- | --- | --- | --- |
| CONC(=O)Cc1cc(OCc2ccc3ccccc3n2)ccc1Nc1c(Cl)cccc1Cl [Example 12] | -41.5% | -2% | -15% | -45% | 70% | % Change in Edema 60 min ([3]; 10 mg/kg i.p.): -28%; % Change in Edema 10 min ([3]; 50 mg/kg p.o.): -2%; % Change in Edema 30 min ([3]; 50 mg/kg p.o.): -36%; % Change in Edema 60 min ([3]; 50 mg/kg p.o.): -22% |
| O=C1Cc2cc(OCc3ccc4ccccc4n3)ccc2N1c1ccccc1 [Example 15, 1-Phenyl-5-(2-quinolinylmethoxy)-1,3-dihydro-2H-indol-2-one] | -24% | -9% | – | – | 40% | – |
| O=C(O)Cc1cc(OCc2ccc3ccccc3n2)ccc1Nc1c(Cl)cccc1Cl [Example 3, 2-[(2,6-Dichlorophenyl)amino]-5-(2-quinolinylmethoxy)benzene acetic acid sodium salt] | 21.7% | – | +12% | -10% | – | IC50 ([2]; acetic acid sodium salt): > 1000 nM; % Change in Edema 60 min ([3]; 10 mg/kg i.p.): +12%; IC50 ([4]; acetic acid sodium salt): 20 nM |
| O=C(O)Cc1cc(OCc2ccc3ccc(Cl)cc3n2)ccc1Nc1c(Cl)cccc1Cl [Example 6, 5[(7-Chloro-2-quinolinyl)methoxy]-2-[(2,6-dichlorophenyl)amino]benzene acetic acid] | 38.8% | 26% | -24% | -24% | 80% | % Change in Edema 3 min ([3]; 1 mg/kg i.p.): -4%; % Change in Edema 10 min ([3]; 1 mg/kg i.p.): -18%; % Change in Edema 60 min ([3]; 10 mg/kg i.p.): -32%; % Change in Edema 10 min ([3]; 50 mg/kg p.o.): -18%; % Change in Edema 30 min ([3]; 50 mg/kg p.o.): -39%; % Change in Edema 60 min ([3]; 50 mg/kg p.o.): -10%; change in vivo at 1 mg/kg ([3]; 1 mg/kg i.p.): -12%; inhibition at 10 µM [5]: -8.6% |
| COc1ccc2cc([C@H](C)C(=O)O)ccc2c1 [Naproxen, reference compound] | – | – | – | – | – | ED50 at +10 min ([3]; p.o., standard drugs): 18 mg/kg |
| Luffarrellolide [reference compound] | – | – | – | – | – | ED50 at +10 min ([3]; p.o., standard drugs): Not Active |
| COC(=O)Cc1cc(OCc2nc3ccccc3n2C)ccc1Nc1c(Cl)cccc1Cl [Example 10, 2-[(2,6-Dichlorophenyl)amino]-5-[(1-methyl-1H-benzimidazol-2-yl)methoxy]benzene acetic acid methyl ester] | – | 32% | -49% | -36% | 65% | % Change in Edema 10 min ([3]; 1 mg/kg i.p.): -29%; change in vivo at 1 mg/kg ([3]; 1 mg/kg i.p.): -20% |
| O=C(O)Cc1cc(OCc2ccc3ccccc3n2)ccc1Nc1c(Cl)cccc1Cl [Example 4, 2-[(2,6-Dichlorophenyl)amino]-5-(2-quinolinylmethoxy)benzene acetic acid 2-amino-2-(hydroxymethyl)-1,3-propanediol salt (1:1)] | – | – | – | – | – | IC50 [2]: 3700 nM |
| O=C1Cc2cc(OCc3ccc4ccccc4n3)ccc2N1c1c(Cl)cccc1Cl [Example 13] | -11% | 10% | – | – | 89% | % Inhibition HP ([5]; "at 50 SM"): 12.5% |
| COC(=O)Cc1cc(OCc2ccc3ccc(Cl)cc3n2)ccc1Nc1c(Cl)cccc1Cl [Example 5, 5-[(7-Chloro-2-quinolyl)methoxy]-2-[(2,6-dichlorophenyl)amino]benzene acetic acid methyl ester] | -127% | 0% | – | – | 56% | inhibition at 10 µM ([2]; Rattus norvegicus, Leukocyte, at 10 μM): 27%; inhibition at 10 µM ([4]; Leukocyte, at 10 μM): 95%; inhibition at 10 µM [5]: -5.3% |
| O=C1Cc2cc(OCc3ccc4ccc(Cl)cc4n3)ccc2N1c1c(Cl)cccc1Cl [Example 18, 1-(2,6-Dichlorophenyl)-5-[7-chloro-2-(quinolinylmethoxy)]-1,3-dihydro-2H-indol-2-one] | 5.1% | – | – | – | – | inhibition at 10 µM [5]: 2.2% |
| O=C(O)Cc1cc(OCc2ccc3ccccc3n2)ccc1Nc1ccccc1 [Example 16, 2-(Phenylamino)-5-(2-quinolinylmethoxy)benzene acetic acid] | -4.3% | 10% | – | – | 90% | inhibition at 10 µM [5]: 14.2% |
| COC(=O)Cc1cc(OCc2ccc3ccccc3n2)ccc1Nc1c(Cl)cccc1Cl [Example 1, 2-[(2,6-Dichlorophenyl)amino]-5-(2-quinolinylmethoxy)-benzene acetic acid methyl ester ethanedioate (1:1)] | – | 4% | -77% | -37% | 96% | % Change in Edema 3 min ([3]; 1 mg/kg i.p.): -10%; % Change in Edema 10 min ([3]; 1 mg/kg i.p.): -31%; % Change in Edema 3 min ([3]; 10 mg/kg i.p.): -39%; change in vivo at 1 mg/kg ([3]; 1 mg/kg i.p.): -23% |
| COc1cccc2c1cc([N+](=O)[O-])c1c(C(=O)O)cc3c(c12)OCO3 [Aristolochic Acid, reference compound] | – | – | – | – | – | ED50 at +10 min ([3]; p.o., standard drugs): Not Active |
| Cn1c(COc2ccc(Nc3c(Cl)cccc3Cl)c(CC(=O)O)c2)nc2ccccc21 [Example 11, acetic acid] | 33.3% | -8% | – | – | -6% | – |
| C[C@@H]1C[C@H]2[C@@H]3CCC4=CC(=O)C=C[C@]4(C)[C@@]3(F)[C@@H](O)C[C@]2(C)[C@@]1(O)C(=O)CO [Dexamethasone, reference compound] | – | – | – | – | – | ED50 at +10 min ([3]; p.o. 3 hr, standard drug): 10 mg/kg |
